The conditions of data set [1]: cited from earlier work; for Tmax / Human PK T½: humans.
The conditions of data set [2]: humans; cited from earlier work.
A short description of data set [3]: Release profile (cumulative fraction released; USP II Paddle system, water). Format: physicochemical. The note with it: memantine-galantamine combination. An excerpt: The cumulative fraction is the amount of drug substance released from the formulation matrix to the serum or gut environment (e.g., U.S. Pat. No. 4,839,177) or as measured with a USP II Paddle system using water as the dissolution medium.

The structures appear in SMILES notation.

With `CCN(C)C(=O)Oc1cccc([C@H](C)N(C)C)c1` [EXELON ®/Rivastigmine], in data set [1], the Tmax (usually the time from dosing to the highest level) was 1 to 2.5 h. Besides, the “Main Dose-Dependent Adverse Event” value in data set [2] is “Nausea, vomiting”.

For the compound `CC(N)C12CC3CC(CC(C3)C1)C2` (stereo not drawn) [Rimantadine, 1-(1-aminoethyl)adamantane], the “Dose Dependent Tox” value in data set [2] was “Insomnia”.

For `COc1ccc2c3c1O[C@H]1C[C@@H](O)C=C[C@@]31CCN(C)C2` [REMINYL ®/Galantamine], the cum. fraction in data set [3] (Time 1) worked out at 0.2; in data set [3] (Time 2) it was 0.3; in data set [3] (Time 4), 0.4; in data set [3] (Time 8), 0.5; in data set [3] (Time 12), 0.6; in data set [3] (Time 16) it was 0.7. Besides, the cum. fraction in data set [3] (Time 20) is 0.8; in data set [3] (Time 24), 1.0. Further, the T½ entry in data set [1] (head of Table 4) is on record as “T½ = 7 hrs”. Besides, the “Human PK T½” value in data set [1] was 7 h. Moreover, in data set [1], the “Tmax” value was 1 to 2.5 h.

Take `C/C=C1\[C@H]2C=C(C)C[C@]1(N)c1ccc(=O)[nH]c1C2` [HUPERZINE-A]: in data set [1], the “Human PK T½” value is 4.8 h and the “Tmax” value was 1.3 h.

As for `CC12CC3CC(C)(C1)CC(N)(C3)C2` [Memantine, 1-amino-3,5-dimethyladamantane], the cum. fraction was 0.2 in data set [3] (Time 1); 0.3 in data set [3] (Time 2); 0.4 in data set [3] (Time 4); 0.5 in data set [3] (Time 8); 0.6 in data set [3] (Time 12); 0.7 in data set [3] (Time 16). In addition, the cum. fraction worked out at 0.8 in data set [3] (Time 20) and 0.9 in data set [3] (Time 24).

These data come from patent publication US8338486B2, “Methods for the treatment of CNS-related conditions” (Adamas Pharmaceuticals, Inc., priority 2004, dated 2012).
